# Measurements as given in US20100197797A1 (priority 2009, published 2010).
# Where two headings read alike, the source gives them in different places.
# What was measured:
# [1] = Human pharmacokinetics; conditions: in vivo
# Protocol: The pharmacokinetic parameters described herein include area under the plasma concentration-time curve (AUC0-t and AUC0-∞), maximum plasma concentration (Cmax), time of maximum plasma concentration (Tmax) and terminal elimination half-life (T1/2). The time of maximum concentration, Tmax, is determined as the time corresponding to Cmax. Area under the plasma concentration-time curve up to the time corresponding to the last measurable concentration (AUC0-t) is calculated by numerical integration using the linear trapezoidal rule as follows: […]
# [2] = Urinary excretion after oral 14C-milnacipran hydrochloride; type: in vivo, human
# Excerpt: Milnacipran and its metabolites are eliminated primarily by renal excretion. […] The l-milnacipran carbamoyl-O-glucuronide was the major metabolite excreted in urine and accounted for approximately 17% of the dose; approximately 2% of the dose was excreted in urine as d-milnacipran carbamoyl-O-glucuronide.
# [3] = system: L5178Y TK+/− mouse lymphoma; type: cell-based
# [4] = system: fibromyalgia patients; experiment: Placebo-controlled trials in fibromyalgia patients (safety); type: in vivo, human; conditions: human, in vivo
# Excerpt: The stated frequencies of adverse reactions represent the proportion of individuals who experienced, at least once, a treatment-emergent adverse reaction of the type listed. A reaction was considered treatment emergent if it occurred for the first time or worsened while receiving therapy following baseline evaluation.
# [5] = system: rat; conditions: in vivo
# [6] = Drug interaction studies in healthy adult subjects; type: in vivo, human; conditions: human, in vivo
# Protocol: The drug interaction studies described below were conducted in healthy adult subjects.
# [7] = system: patients; experiment: Spontaneous / postmarketing reports; type: in vivo, human; conditions: in vivo
# Excerpt: However, because these adverse reactions were reported voluntarily from a population of uncertain size, it is not always possible to reliably estimate their frequency or establish a causal relationship to drug exposure.
# [8] = system: bacterial reverse mutation; experiment: In vitro bacterial reverse mutation assay (Ames test); type: cell-based
# [9] = human, in vivo
# Excerpt: Dosage adjustment based on gender is not necessary.
# [10] = system: opiate receptors; experiment: Receptor affinity in vitro; type: binding
# [11] = system: γ-aminobutyric acid (GABA) receptors; experiment: Receptor affinity in vitro; type: binding
# [12] = biological target: neuronal serotonin reuptake (Homo sapiens, UniProt P31645); experiment: Serotonin uptake inhibition in vitro; type: biochemical; conditions: preclinical studies
# [13] = biological target: human monoamine oxidase MAO-B (Homo sapiens, UniProt P27338); experiment: Enzyme inhibition; type: biochemical
# [14] = system: human lymphocytes; type: cell-based
# [15] = system: α-adrenergic receptors; experiment: Receptor affinity in vitro; type: binding
# [16] = system: Ca^++ channels; experiment: Ion channel affinity; type: binding
# [17] = system: rabbits; experiment: Embryotoxicity/teratogenicity in rabbits, period of organogenesis; type: in vivo, rabbit; conditions: up to 60 mg/kg/day (6 times the MRHD)
# [18] = system: mice; experiment: Embryotoxicity/teratogenicity in mice, period of organogenesis; type: in vivo, mouse; conditions: up to 125 mg/kg/day (3 times the MRHD)
# [19] = system: rats; experiment: Reproductive toxicity in rats (dead fetuses in utero); type: in vivo, rat; conditions: 5 mg/kg/day (0.25 times the MRHD on a mg/m^2 basis)
# [20] = system: benzodiazepine receptors; experiment: Receptor affinity in vitro; type: binding
# [21] = system: dopamine (D1-5) receptors; experiment: Receptor affinity in vitro; type: binding
# [22] = system: rats; experiment: Oral administration to rats during late gestation; type: in vivo
# Protocol: The no-effect dose for maternal and offspring toxicity was 2.5 mg/kg/day (approximately 0.1 times the MRHD on a mg/m^2 basis).
# [23] = set-up: species or system human; conditions: in vivo, po
# Excerpt: AUC0-∞ and T½ were similar in healthy subjects and subjects with mild and moderate hepatic impairment. […] Caution should be exercised in patients with severe hepatic impairment.
# [24] = system: rats; conditions: rat, in vivo, 15 mg/kg
# Excerpt: (§1) The clinical significance of the finding is not known.
# [25] = system: primate; conditions: in vivo
# Excerpt: as §1
# [26] = system: histamine (H1-4) receptors; experiment: Receptor affinity in vitro; type: binding
# [27] = system: serotonergic (5-HT1-7) receptors; experiment: Receptor affinity in vitro; type: binding
# [28] = system: K^+ channels; experiment: Ion channel affinity; type: binding
# [29] = biological target: human monoamine oxidase MAO-A (Homo sapiens, UniProt P21397); experiment: Enzyme inhibition; type: biochemical
# [30] = system: Cl^− channels; experiment: Ion channel affinity; type: binding
# [31] = system: Na^+ channels; experiment: Ion channel affinity; type: binding
# [32] = biological target: T1, uptake of dopamine (Homo sapiens, UniProt Q01959); conditions: cited from earlier work
# [33] = system: rats; conditions: rat, in vivo, 50 mg/kg/day
# [34] = system: mouse; conditions: in vivo
# [35] = system: muscarinic (M1-5) receptors; experiment: Receptor affinity in vitro; type: binding
# [36] = system: β-adrenergic receptors; experiment: Receptor affinity in vitro; type: binding
# [37] = in vivo
# Excerpt: Milnacipran is not a controlled substance.
# These withdrawal symptoms can be severe. Thus, in certain embodiments, milnacipran hydrochloride should be tapered and not abruptly discontinued after extended use.
# [38] = biological target: T1, uptake of dopamine; experiment: Dopamine uptake; type: biochemical; conditions: preclinical studies
# [39] = biological target: acetylcholinesterase (Homo sapiens, UniProt P22303); experiment: Enzyme inhibition; type: biochemical
# [40] = oral 14C-milnacipran hydrochloride
# T1 sequence (Q01959 whole entry): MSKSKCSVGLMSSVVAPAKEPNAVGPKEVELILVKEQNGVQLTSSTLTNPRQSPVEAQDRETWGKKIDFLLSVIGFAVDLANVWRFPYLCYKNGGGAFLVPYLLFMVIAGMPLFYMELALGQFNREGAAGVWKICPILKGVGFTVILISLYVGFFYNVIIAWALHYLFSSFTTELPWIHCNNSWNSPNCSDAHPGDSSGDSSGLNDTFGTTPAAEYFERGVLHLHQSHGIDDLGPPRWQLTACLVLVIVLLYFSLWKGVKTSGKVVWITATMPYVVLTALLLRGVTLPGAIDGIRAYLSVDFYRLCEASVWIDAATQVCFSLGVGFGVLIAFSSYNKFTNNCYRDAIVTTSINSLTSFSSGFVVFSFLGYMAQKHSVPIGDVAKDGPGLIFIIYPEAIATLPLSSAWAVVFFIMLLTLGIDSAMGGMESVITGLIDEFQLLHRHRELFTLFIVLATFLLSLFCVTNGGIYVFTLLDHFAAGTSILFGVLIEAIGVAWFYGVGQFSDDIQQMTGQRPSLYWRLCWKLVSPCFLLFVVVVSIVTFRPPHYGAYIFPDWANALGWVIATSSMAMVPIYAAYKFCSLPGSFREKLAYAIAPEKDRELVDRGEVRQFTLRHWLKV
# human monoamine oxidase MAO-B, sequence (P27338 whole entry): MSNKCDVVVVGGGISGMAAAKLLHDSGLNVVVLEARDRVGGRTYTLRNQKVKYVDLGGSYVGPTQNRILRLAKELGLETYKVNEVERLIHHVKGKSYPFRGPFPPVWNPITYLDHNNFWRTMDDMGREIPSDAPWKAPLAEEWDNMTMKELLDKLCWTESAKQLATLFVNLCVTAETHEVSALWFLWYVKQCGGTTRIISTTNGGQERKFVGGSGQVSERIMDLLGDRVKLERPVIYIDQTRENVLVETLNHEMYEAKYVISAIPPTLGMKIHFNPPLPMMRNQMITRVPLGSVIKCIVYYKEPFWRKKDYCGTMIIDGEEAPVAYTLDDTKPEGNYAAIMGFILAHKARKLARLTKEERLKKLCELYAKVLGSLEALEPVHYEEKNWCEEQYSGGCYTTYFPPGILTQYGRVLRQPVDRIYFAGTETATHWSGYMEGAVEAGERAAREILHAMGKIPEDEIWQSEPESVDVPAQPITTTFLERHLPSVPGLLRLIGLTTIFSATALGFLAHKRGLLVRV
# neuronal serotonin reuptake, sequence (P31645 whole entry): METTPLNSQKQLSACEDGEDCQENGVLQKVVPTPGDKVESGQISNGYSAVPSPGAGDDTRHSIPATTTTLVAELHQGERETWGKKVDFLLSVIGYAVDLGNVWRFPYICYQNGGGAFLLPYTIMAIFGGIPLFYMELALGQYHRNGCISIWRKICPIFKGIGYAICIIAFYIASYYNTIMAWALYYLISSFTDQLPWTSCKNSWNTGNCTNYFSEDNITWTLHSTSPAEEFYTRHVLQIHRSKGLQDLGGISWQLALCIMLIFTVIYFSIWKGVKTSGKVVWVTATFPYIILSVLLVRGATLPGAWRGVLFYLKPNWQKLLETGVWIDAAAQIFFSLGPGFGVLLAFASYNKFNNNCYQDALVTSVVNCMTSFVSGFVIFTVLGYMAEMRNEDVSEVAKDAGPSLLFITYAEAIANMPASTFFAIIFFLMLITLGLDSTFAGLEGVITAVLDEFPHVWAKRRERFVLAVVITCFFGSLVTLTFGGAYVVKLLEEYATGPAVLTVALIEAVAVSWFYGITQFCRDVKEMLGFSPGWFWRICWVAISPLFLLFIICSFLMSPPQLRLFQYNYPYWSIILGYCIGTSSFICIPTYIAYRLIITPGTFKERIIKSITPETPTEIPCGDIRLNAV
# acetylcholinesterase, sequence (P22303 32-614, species assumed): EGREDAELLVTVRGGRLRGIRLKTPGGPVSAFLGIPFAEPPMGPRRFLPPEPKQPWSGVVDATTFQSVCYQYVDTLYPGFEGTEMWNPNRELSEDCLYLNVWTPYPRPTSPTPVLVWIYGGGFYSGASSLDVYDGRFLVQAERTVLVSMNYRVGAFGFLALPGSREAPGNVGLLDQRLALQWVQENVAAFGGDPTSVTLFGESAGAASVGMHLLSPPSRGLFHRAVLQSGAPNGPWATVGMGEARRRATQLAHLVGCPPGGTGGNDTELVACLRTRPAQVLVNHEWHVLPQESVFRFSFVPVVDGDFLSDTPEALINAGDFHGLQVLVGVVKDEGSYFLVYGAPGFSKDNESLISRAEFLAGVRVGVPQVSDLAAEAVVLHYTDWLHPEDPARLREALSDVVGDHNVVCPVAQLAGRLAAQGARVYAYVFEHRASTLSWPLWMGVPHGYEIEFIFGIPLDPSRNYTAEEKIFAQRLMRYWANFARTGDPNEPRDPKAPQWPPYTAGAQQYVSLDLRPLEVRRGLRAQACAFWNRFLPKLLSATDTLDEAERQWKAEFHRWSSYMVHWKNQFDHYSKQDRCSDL
# human monoamine oxidase MAO-A, sequence (P21397 whole entry): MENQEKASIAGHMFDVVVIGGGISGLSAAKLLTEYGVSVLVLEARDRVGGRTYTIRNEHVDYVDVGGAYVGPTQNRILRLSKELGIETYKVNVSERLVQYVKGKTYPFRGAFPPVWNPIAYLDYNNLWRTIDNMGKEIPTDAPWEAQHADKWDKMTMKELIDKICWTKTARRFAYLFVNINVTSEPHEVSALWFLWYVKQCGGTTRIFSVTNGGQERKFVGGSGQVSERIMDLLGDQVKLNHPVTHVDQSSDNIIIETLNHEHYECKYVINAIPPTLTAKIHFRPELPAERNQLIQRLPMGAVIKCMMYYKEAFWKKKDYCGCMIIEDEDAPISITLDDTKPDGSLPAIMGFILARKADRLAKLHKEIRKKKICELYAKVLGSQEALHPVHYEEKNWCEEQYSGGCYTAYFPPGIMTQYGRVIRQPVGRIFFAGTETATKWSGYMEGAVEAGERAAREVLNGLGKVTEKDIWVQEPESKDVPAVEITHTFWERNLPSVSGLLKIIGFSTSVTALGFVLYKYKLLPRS
structure (smiles),measurement,setting,value
"CCN(CC)C(=O)[C@]1(c2ccccc2)C[C@@H]1CN.Cl [(1R,2S) enantiomer, (1R,2S)-2-aminomethyl-1-phenyl-N,N-diethylcyclopropanecarboxamide hydrochloride]",half-life,[1]; human,4 to 6 h
"CCN(CC)C(=O)[C@@]1(c2ccccc2)C[C@H]1CN.Cl [(1S,2R) enantiomer, (1S,2R)-2-aminomethyl-1-phenyl-N,N-diethylcyclopropanecarboxamide hydrochloride]",half-life,[1]; human,8 to 10 h
CCNC(=O)[C@]1(c2ccccc2)C[C@@H]1CN [N-desethyl milnacipran],dose excreted in urine as this species,[2]; [40],Approximately 8%
CCN(CC)C(=O)[C@]1(c2ccccc2)C[C@@H]1CNC(=O)O[C@@H]1O[C@H](C(=O)O)[C@@H](O)[C@H](O)[C@H]1O [d-milnacipran carbamoyl-O-glucuronide],dose excreted in urine as this species,[2]; [40],approximately 2%
CCN(CC)C(=O)[C@]1(c2ccccc2)C[C@@H]1CN [d-milnacipran],dose excreted in urine as this species,[2]; [40],31%
CCN(CC)C(=O)[C@@]1(c2ccccc2)C[C@H]1CNC(=O)O[C@@H]1O[C@H](C(=O)O)[C@@H](O)[C@H](O)[C@H]1O [l-milnacipran carbamoyl-O-glucuronide],dose excreted in urine as this species,[2]; [40],approximately 17%
CCN(CC)C(=O)[C@@]1(c2ccccc2)C[C@H]1CN [l-milnacipran],dose excreted in urine as this species,[2]; [40],24%
CCN(CC)C(=O)C1(c2ccccc2)CC1CN (stereo not shown) [milnacipran],mutagenicity,[3],not mutagenic
same,withdrawal due to constipation,[4],1%
same,withdrawal due to dizziness,[4],1%
same,withdrawal due to headache,[4],2%
same,withdrawal due to heart rate increased,[4],1%
same,withdrawal due to hyperhidrosis,[4],1%
same,withdrawal due to nausea,[4],6%
same,withdrawal due to palpitations,[4],3%
same,withdrawal due to vomiting,[4],1%
same,withdrawal symptoms following discontinuation,[4],Withdrawal symptoms have been observed
same,keratitis of the eye,[5],did not show this response
same,adverse events after switching from clomipramine,[6],"an increase in adverse events (e.g., euphoria and postural hypotension)"
same,liver findings,[7],"cases of increased liver enzymes and reports of severe liver injury, including fulminant hepatitis"
same,mutagenicity,[8],not mutagenic
same,higher AUC,[9]; both,about 20%
same,higher Cmax,[9]; both,about 20%
same,higher AUC,[9],about 30%
same,higher Cmax,[9],about 30%
same,affinity,[10],no significant affinity
same,affinity,[11],no significant affinity
same,inhibition of neuronal serotonin reuptake,[12],potent inhibitor
same,inhibition of activity,[13],does not inhibit
same,clastogenicity,[14],not clastogenic
same,affinity,[15],no significant affinity
same,affinity,[16],no significant affinity
same,embryotoxicity or teratogenicity,[17],did not result in embryotoxicity or teratogenicity
same,embryotoxicity or teratogenicity,[18],did not result in embryotoxicity or teratogenicity
same,incidence of dead fetuses in utero,[19],increased the incidence of dead fetuses in utero
same,affinity,[20],no significant affinity
same,affinity,[21],no significant affinity
same,pup body weight and viability on postpartum day 4,"[22]; rat, in vivo, po, 5 mg/kg/day",decrease in pup body weight and viability
same,no-effect dose for maternal and offspring toxicity,[22]; rats (approximately 0.1 times the MRHD),2.5 mg/kg/day
same,higher AUC0-∞ than healthy subjects,"[23]; human, 50 mg",31%
same,higher T½ than healthy subjects,"[23]; human, 50 mg",55%
same,T½ vs healthy subjects,[23],similar
same,dose excreted unchanged in urine,[1]; human,55%
same,half-life,[1]; human,6 to 8 h
same,time to steady-state levels,[1]; human,36 to 48 h
same,Vd,"[1]; human, iv",~400 L
same,bioavailability,"[1]; human, po",85 to 90%
same,exposure vs dose,[1],increased proportionally
same,hepatic findings,[24],increased incidences of centrilobular vacuolation of the liver in male rats and eosinophilic foci in male and female rats
same,keratitis of the eye,[24],increased incidence of keratitis of the eye
same,keratitis of the eye,[25],did not show this response
same,dose excreted in urine as this species,"[2]; human, in vivo, po",approximately 55%
same,affinity,[26],no significant affinity
same,affinity,[27],no significant affinity
same,affinity,[28],no significant affinity
same,inhibition of activity,[29],does not inhibit
same,affinity,[30],no significant affinity
same,affinity,[31],no significant affinity
same,effect on uptake of dopamine,[32],does not affect
same,tumor incidence,[33],statistically significant increase in the incidence of thyroid C-cell adenomas and combined adenomas and carcinomas in males
same,clastogenicity,[34],not clastogenic
same,affinity,[35],no significant affinity
same,affinity,[36],no significant affinity
same,behavioral signs indicative of abuse potential,[37],did not produce behavioral signs indicative of abuse potential
same,physical dependence,[37],produces physical dependence
same,effect on uptake of dopamine or other neurotransmitters,[38],without directly affecting
same,inhibition of activity,[39],does not inhibit
